The values below come from patent US20160158200A1, “Combinations of Hepatitis C Virus Inhibitors” (priority 2013, published 2016).

For this experiment, the system named is HCV genotype-1a variant with glutamine 30 changed to glutamate in the NS5A protein. Format: cell-based. Conditions: test compound titrated with BMS-790052 fixed at 200 nM; genotype 1a Q30E replicon. In short, it runs like this:
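Synergy was assessed by combining several fixed amounts of an NS5A-targeting compound with a titration of the second compound of interest.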
A general note: A replicon is a self-replicating genome or part of one, used to study replication in cells.

Take `CC(C)[C@H](NC(=O)C1(CO)CC(F)(F)C1)c1nc(-c2ccc(-c3ccc(-c4c[nH]c([C@@H](NC(=O)C5(CO)CC(F)(F)C5)C(C)C)n4)cc3)cc2)c[nH]1` [Compound N-154]: the “Fold-Synergistic 1a (Q30E)” value is reported as above 100 fold. Turning to `CC(C)(C)[C@H](NC(=O)Cc1ccc(F)cc1)c1nc(-c2ccc(-c3ccc(-c4c[nH]c([C@@H](NC(=O)Cc5ccc(F)cc5)C(C)(C)C)n4)cc3)cc2)c[nH]1` [Compound N-49], the “Fold-Synergistic 1a (Q30E)” value is on record as above 100 fold.

Turning to `C[C@@H](C(=O)N[C@H](c1nc(-c2ccc(-c3ccc(-c4c[nH]c([C@@H](NC(=O)[C@H](C)c5ccccc5)C(C)(C)C)n4)cc3)cc2)c[nH]1)C(C)(C)C)c1ccccc1` [Compound N-61], the “Fold-Synergistic 1a (Q30E)” value was above 100 fold. The same measure for `CC(C)[C@H](NC(=O)C(C)(C)C(F)(F)F)c1ncc(-c2ccc(-c3ccc(-c4cnc([C@@H](NC(=O)C(C)(C)C(F)(F)F)C(C)C)[nH]4)cc3)cc2)[nH]1` [Compound P-87]: above 100 fold; for `CC1(C(O)C(C)(C)C(=O)N[C@H](c2nc(-c3ccc(-c4ccc(-c5c[nH]c([C@@H](NC(=O)C(C)(C)C(O)C6(C)CC6)C(C)(C)C)n5)cc4)cc3)c[nH]2)C(C)(C)C)CC1` (single isomer, unassigned) [Compound N-151B]: above 100 fold. `O=C(NC(c1nc(-c2ccc(-c3ccc(-c4c[nH]c(C(NC(=O)C(=O)N5CCC(F)(F)CC5)C5CC5)n4)cc3)cc2)c[nH]1)C1CC1)C(=O)N1CCC(F)(F)CC1` [Compound L-37]: the “Fold-Synergistic 1a (Q30E)” value is reported as above 100 fold. The value for `COC(C)(C)C(=O)N[C@H](c1nc(-c2ccc(-c3ccc(-c4c[nH]c([C@@H](NC(=O)C(C)(C)OC)C(C)C)n4)c(F)c3)cc2)c[nH]1)C(C)C.O=C(O)C(F)(F)F` [Compound N-87] was above 100 fold. The value for `CC(C)[C@H](NC(=O)Cc1cccs1)c1ncc(-c2ccc(-c3ccc(-c4cnc([C@@H](NC(=O)Cc5cccs5)C(C)C)[nH]4)cc3)cc2)[nH]1` [Compound P-78] was above 100 fold; that for `CC(C)(C)C(=O)N[C@H](c1ncc(-c2ccc(-c3ccc(-c4cnc([C@@H](NC(=O)C(C)(C)C)C5(C)CC5)[nH]4)cc3)cc2)[nH]1)C1(C)CC1` [Compound Y-35] was above 100 fold; that for `CC(C)[C@H](NC(=O)c1c(F)cc(F)cc1F)c1ncc(-c2ccc(-c3ccc(-c4cnc([C@@H](NC(=O)c5c(F)cc(F)cc5F)C(C)C)[nH]4)cc3)cc2)[nH]1` [Compound S-92] was above 100 fold.

On to `O=C(C(=O)N1C(c2nc(-c3ccc(-c4ccc(-c5c[nH]c(C6CC7C[C@@H]7N6C(=O)C(=O)N6CCC(F)(F)CC6)n5)cc4)cc3)c[nH]2)C[C@@H]2CC21)N1CCC(F)(F)CC1` (stereo partly drawn) [Compound W-243], for which the “Fold-Synergistic 1a (Q30E)” value is on record as above 100 fold. For the compound `CC(C)[C@H](NC(=O)OC(C)(C)C)c1ncc(-c2ccc(-c3ccc(-c4cnc([C@@H](NC(=O)C(C)(C)C)C(C)C)[nH]4)cc3)cc2)[nH]1` [Compound Y-51], the “Fold-Synergistic 1a (Q30E)” value is on record as above 100 fold.

For `CN1CCC(C(=O)N[C@H](c2nc(-c3ccc(-c4ccc(-c5c[nH]c([C@@H](NC(=O)C6CCN(C)CC6)C(C)(C)C)n5)cc4)cc3)c[nH]2)C(C)(C)C)CC1` [Compound S-268], the “Fold-Synergistic 1a (Q30E)” value was above 10 fold. The value for `CC(C)(C(=O)N[C@H](c1nc(-c2ccc(-c3ccc(-c4c[nH]c([C@@H](NC(=O)C(C)(C)C(O)c5ccccc5)C(C)(C)C)n4)cc3)cc2)c[nH]1)C(C)(C)C)C(O)c1ccccc1` (single isomer, unassigned) [Compound N-127C] was above 100 fold. As for `O=C(c1ccccc1Oc1ccccc1)N1CCC[C@H]1c1ncc(-c2ccc(-c3ccc(-c4cnc([C@@H]5CCCN5C(=O)c5ccccc5Oc5ccccc5)[nH]4)cc3)cc2)[nH]1` [Compound S-114], the “Fold-Synergistic 1a (Q30E)” value was below 10 fold.

As to `CO[C@@H](C(=O)N[C@H](c1ncc(-c2ccc(-c3ccc(-c4cnc([C@@H](NC(=O)[C@H](OC)c5ccccc5)C(C)C)[nH]4)cc3)cc2)[nH]1)C(C)C)c1ccccc1` [Compound P-75], the “Fold-Synergistic 1a (Q30E)” value is recorded as above 100 fold.

Take `CC(C)[C@H](NC(=O)C(C)(C)C)c1nc(-c2ccc3c(c2)CCc2cc(-c4c[nH]c([C@@H](NC(=O)C(C)(C)C)C(C)C)n4)ccc2-3)c[nH]1` [Compound N-74]: the “Fold-Synergistic 1a (Q30E)” value was above 100 fold. As for `COC(=O)N[C@H](CC(C)C)C(=O)N[C@H](c1ncc(-c2ccc(-c3ccc(-c4cnc([C@@H](NC(=O)[C@@H](CC(C)C)NC(=O)OC)C(C)C)[nH]4)cc3)cc2)[nH]1)C(C)C` [Compound P-105], the “Fold-Synergistic 1a (Q30E)” value is above 100 fold. With `CCCC[C@@H](CC(=O)OC(C)(C)C)C(=O)N[C@H](c1nc(-c2ccc(-c3ccc(-c4c[nH]c([C@@H](NC(=O)[C@@H](CCCC)CC(=O)OC(C)(C)C)C(C)(C)C)n4)cc3)cc2)c[nH]1)C(C)(C)C` [Compound S-260], the “Fold-Synergistic 1a (Q30E)” value is recorded as above 100 fold. In the case of `CC[C@H](C(=O)N[C@H](c1ncc(-c2ccc(-c3ccc(-c4cnc([C@@H](NC(=O)[C@@H](CC)c5ccccc5)C(C)C)[nH]4)cc3)cc2)[nH]1)C(C)C)c1ccccc1` [Compound P-61], the “Fold-Synergistic 1a (Q30E)” value is given as above 100 fold.

`CCC(=O)NC1(C(=O)N[C@H](c2nc(-c3ccc(-c4ccc(-c5c[nH]c([C@@H](NC(=O)C6(NC(=O)CC)CCCCC6)C(C)(C)C)n5)cc4)cc3)c[nH]2)C(C)(C)C)CCCCC1` [Compound W-265]: the “Fold-Synergistic 1a (Q30E)” value is given as above 100 fold.

Consider `CC(C)(F)C(=O)N[C@H](c1nc(-c2ccc(-c3ccc(-c4c[nH]c([C@@H](NC(=O)C(C)(C)F)C(C)(C)C)n4)cc3)cc2)c[nH]1)C(C)(C)C` [Compound N-115], for which the “Fold-Synergistic 1a (Q30E)” value is recorded as above 100 fold. With `CC(C)[C@H](NC(=O)Cc1ncccn1)c1ncc(-c2ccc(-c3ccc(-c4cnc([C@@H](NC(=O)Cc5ncccn5)C(C)C)[nH]4)cc3)cc2)[nH]1` [Compound P-95], the “Fold-Synergistic 1a (Q30E)” value is above 10 fold.

For `CC(C)(C)[C@H](NC(=O)C1(F)CCC(F)(F)CC1)c1nc(-c2ccc(-c3ccc(-c4c[nH]c([C@@H](NC(=O)C5(F)CCC(F)(F)CC5)C(C)(C)C)n4)cc3)cc2)c[nH]1` [Compound P-39], the “Fold-Synergistic 1a (Q30E)” value was above 100 fold. With `CN(C(=O)OC(C)(C)C)C(C)(C)C(=O)N[C@H](c1nc(-c2ccc(-c3ccc(-c4c[nH]c([C@@H](NC(=O)C(C)(C)N(C)C(=O)OC(C)(C)C)C(C)(C)C)n4)cc3)cc2)c[nH]1)C(C)(C)C.O=C(O)C(F)(F)F.O=C(O)C(F)(F)F` [Compound L-8], the “Fold-Synergistic 1a (Q30E)” value is above 100 fold. On to `CC(C)C(NC(=O)C(=O)N(CC(F)(F)F)C(C)C)c1nc(-c2ccc(-c3ccc(-c4c[nH]c(C(NC(=O)C(=O)N(CC(F)(F)F)C(C)C)C(C)C)n4)cc3)cc2)c[nH]1` (stereo not drawn) [Compound W-65], for which the “Fold-Synergistic 1a (Q30E)” value is reported as above 100 fold. In the case of `CC(C)(C)C(NC(=O)C1(O)CCC1)c1nc(-c2ccc(-c3ccc(-c4c[nH]c(C(NC(=O)C5(O)CCC5)C(C)(C)C)n4)cc3)cc2)c[nH]1` [Compound L-71], the “Fold-Synergistic 1a (Q30E)” value was above 100 fold. For the compound `CC(C)[C@H](NC(=O)C(C)(C)CO)c1ncc(-c2ccc(-c3ccc(-c4cnc([C@@H](NC(=O)C(C)(C)CO)C(C)C)[nH]4)cc3)cc2)[nH]1` [Compound P-67], the “Fold-Synergistic 1a (Q30E)” value was above 100 fold. The value for `CC(C)(C)[C@H](NC(=O)C1CCC(F)(F)CC1)c1ncc(-c2ccc(-c3ccc(-c4ccc5nc([C@@H](NC(=O)C6CCC(F)(F)CC6)C(C)(C)C)[nH]c5c4)cc3)cc2)[nH]1` [Compound B56] was above 100 fold; that for `[2H]C([2H])([2H])C(=O)NC1(C(=O)N[C@H](c2nc(-c3ccc(-c4ccc(-c5c[nH]c([C@@H](NC(=O)C6(NC(=O)C([2H])([2H])[2H])CCCCC6)C(C)(C)C)n5)cc4)cc3)c[nH]2)C(C)(C)C)CCCCC1` [Compound W-272] was above 100 fold; that for `CC(C)[C@H](NC(=O)C(=O)c1ncccc1F)c1ncc(-c2ccc(-c3ccc(-c4cnc([C@@H](NC(=O)C(=O)c5ncccc5F)C(C)C)[nH]4)cc3)cc2)[nH]1` [Compound P-120] was above 100 fold. Turning to `CC(C)(C)[C@H](NC(=O)C1(CO)CC(F)(F)C1)c1nc(-c2ccc(-c3ccc(-c4c[nH]c([C@@H](NC(=O)C5(CO)CC(F)(F)C5)C(C)(C)C)n4)cc3)cc2)c[nH]1` [Compound N-153], the “Fold-Synergistic 1a (Q30E)” value is reported as above 100 fold.

For the compound `COC(=O)NC1CCCCC1C(=O)NC(c1nc(-c2ccc(-c3ccc(-c4c[nH]c(C(NC(=O)C5CCCCC5NC(=O)OC)C(C)(C)C)n4)cc3)cc2)c[nH]1)C(C)(C)C` (mixture of isomers) [Compound S-275], the “Fold-Synergistic 1a (Q30E)” value is given as above 100 fold. The value for `CC(C)[C@H](NC(=O)C1CCCC1)c1ncc(-c2ccc(-c3ccc(-c4cnc([C@@H](NC(=O)C5CCCC5)C(C)C)[nH]4)cc3)cc2)[nH]1` [Compound S-23] was above 100 fold; that for `CC(C)[C@H](NC(=O)c1ccccn1)c1ncc(-c2ccc(-c3ccc(-c4cnc([C@@H](NC(=O)c5ccccn5)C(C)C)[nH]4)cc3)cc2)[nH]1` [Compound S-46] was above 10 fold; that for `COC(=O)NC(C(=O)N1CCCC1c1ncc(-c2ccc(-c3ccc(-c4cnc(C(NC(=O)C(C)(C)C)C(C)(C)C)[nH]4)cc3)cc2)[nH]1)C(C)C` (stereo not drawn) [Compound B-195] was above 10 fold. The value for `CC1(C(=O)N[C@H](c2nc(-c3ccc(-c4ccc(-c5c[nH]c([C@@H](NC(=O)C6(C)CCOCC6)C(C)(C)C)n5)cc4)cc3)c[nH]2)C(C)(C)C)CCOCC1` [Compound W-130] was above 100 fold; that for `CCOC(=O)CC1(C(=O)N[C@H](c2nc(-c3ccc(-c4ccc(-c5c[nH]c([C@@H](NC(=O)C6(NC(=O)OCC)CCCCC6)C(C)(C)C)n5)cc4)cc3)c[nH]2)C(C)(C)C)CCCCC1` [Compound W-250] was above 100 fold. Turning to `CC(C)[C@H](NC(=O)Cc1ccccc1F)c1ncc(-c2ccc(-c3ccc(-c4cnc([C@@H](NC(=O)Cc5ccccc5F)C(C)C)[nH]4)cc3)cc2)[nH]1` [Compound S-37], the “Fold-Synergistic 1a (Q30E)” value is given as above 100 fold.
